Converted amounts (≈) assume the structure as drawn. Like-named read-outs stand apart in the source and are kept apart here.
Columns and labels:
[1] = tested on: Trichophyton interdigitale; assay: Antifungal Activity (in Medicinal Field), MIC; assay type: cell-based; conditions: read-out: Minimal Inhibitory Conc. (MIC)
[2] = tested on: Pseudomonas cepacia M-0527; assay: Antibacterial Activity (in medicinal field), MIC; assay type: cell-based; conditions: Burkholderia cepacia, M0527, read-out: Minimal Inhibitory Conc. (MIC)
[3] = tested on: Aspergillus fumigatus Saito; assay: Antifungal Activity (in Medicinal Field), MIC; assay type: cell-based; conditions: read-out: Minimal Inhibitory Conc. (MIC)
[4] = tested on: Cryptococcus neoformans Cr-1; assay: Antifungal Activity (in Medicinal Field), MIC; assay type: cell-based; conditions: CR1, read-out: Minimal Inhibitory Conc. (MIC)
[5] = tested on: Candida alubicans GA-24; assay: Antifungal Activity (in Medicinal Field), MIC; assay type: cell-based; conditions: GA24; Candida alubicans GA-24; read-out: Minimal Inhibitory Conc. (MIC)
[6] = tested on: Trichophyton metagrophytes 530324; assay: Antifungal Activity (in Medicinal Field), MIC; assay type: cell-based; conditions: Trichophyton metagrophytes 530324; read-out: Minimal Inhibitory Conc. (MIC)
[7] = tested on: Pseudomonas maltophilia M-0627; assay: Antibacterial Activity (in medicinal field), MIC; assay type: cell-based; conditions: Stenotrophomonas maltophilia, M0627, read-out: Minimal Inhibitory Conc. (MIC)
[8] = tested on: Proteus vulgaris OX-19; assay: Antibacterial Activity (in medicinal field), MIC; assay type: cell-based; conditions: OX19, read-out: Minimal Inhibitory Conc. (MIC)
[9] = tested on: Serratia marcescens MB-3848; assay: Antibacterial Activity (in medicinal field), MIC; assay type: cell-based; conditions: MB3848, read-out: Minimal Inhibitory Conc. (MIC)
[10] = tested on: Bacillus anthracis No. 119; assay: microbe, parasite or virus in culture; assay type: cell-based; conditions: NO.119, read-out: Minimal Inhibitory Conc. (MIC)
[11] = tested on: Klebsiella pneumoniae PCI-602; assay: Antibacterial Activity (in medicinal field), MIC; assay type: cell-based; conditions: PCI602, read-out: Minimal Inhibitory Conc. (MIC)
[12] = tested on: Salmonella typhi O-901-W; assay: Antibacterial Activity (in medicinal field), MIC; assay type: cell-based; conditions: Salmonella enterica, read-out: Minimal Inhibitory Conc. (MIC)
[13] = tested on: Escherichia coli NIHJ JC-2; assay: Antibacterial Activity (in medicinal field), MIC; assay type: cell-based; conditions: NIHJJC2, read-out: Minimal Inhibitory Conc. (MIC)
[14] = tested on: Shigella sonnei EW 33 Type I; assay: Antibacterial Activity (in medicinal field), MIC; assay type: cell-based; conditions: EW33TYPEI; Shigella sonnei EW 33 Type I; read-out: Minimal Inhibitory Conc. (MIC)
[15] = tested on: Staphylococcus aureus 209P JC-1; assay: Antibacterial Activity (in medicinal field), MIC; assay type: cell-based; conditions: read-out: Minimal Inhibitory Conc. (MIC)
[16] = tested on: Aspergillus fumigatus IAM 2621; assay: Antifungal Activity (in Industrial Field), MIC; assay type: cell-based; conditions: IAM2621, read-out: Minimal Inhibitory Conc. (MIC)
[17] = tested on: Staphylococcus epidermidis ATCC 14990; assay: Antibacterial Activity (in medicinal field), MIC; assay type: cell-based; conditions: Staphylococcus epidermidis, ATCC14990, read-out: Minimal Inhibitory Conc. (MIC)
[18] = tested on: Erwinia carotovora; assay: Antibacterial and Antifungal Activities (in Agricultural Field), MIC; assay type: cell-based; conditions: Pectobacterium carotovorum, read-out: Minimal Inhibitory Conc. (MIC)
[19] = tested on: Botrytis cinerea; assay: as above; assay type: cell-based; conditions: read-out: Minimal Inhibitory Conc. (MIC)
[20] = tested on: Gibberella fujikuroi; assay: as above; assay type: cell-based; conditions: Fusarium fujikuroi, read-out: Minimal Inhibitory Conc. (MIC)
[21] = tested on: Penicillium luteum ATCC 9644; assay: Antifungal Activity (in Industrial Field), MIC; assay type: cell-based; conditions: Ascospirella lutea, ATCC9644, read-out: Minimal Inhibitory Conc. (MIC)
[22] = tested on: Mucor spinescens IAM Mu3; assay: Antifungal Activity (in Industrial Field), MIC; assay type: cell-based; conditions: IAMMU3, read-out: Minimal Inhibitory Conc. (MIC)
[23] = tested on: Trichophyton mentagrophytes; assay: Reducing culture positive rate of skin slices from infected guinea pigs; assay type: in vivo, guinea pigs (White Hartly-strain); parameters: concentration or dose not given beside the values; conditions: after 8 days application, non-treated 100
[24] = tested on: Trichoderma T-1 ATCC 9645; assay: Antifungal Activity (in Industrial Field), MIC; assay type: cell-based; conditions: ATCC9645, read-out: Minimal Inhibitory Conc. (MIC)
[25] = tested on: Pellicularia filamentosa; assay: Antibacterial and Antifungal Activities (in Agricultural Field), MIC; assay type: cell-based; conditions: read-out: Minimal Inhibitory Conc. (MIC)
[26] = tested on: Alternaria kikuchiana; assay: as above; assay type: cell-based; conditions: read-out: Minimal Inhibitory Conc. (MIC)
[27] = tested on: Colletotrichum lagenarium; assay: as above; assay type: cell-based; conditions: Colletotrichum orbiculare, read-out: Minimal Inhibitory Conc. (MIC)
[28] = tested on: Pullularia pullulans IAM F-24; assay: Antifungal Activity (in Industrial Field), MIC; assay type: cell-based; conditions: IAMF24; Pullularia pullulans IAM F-24; read-out: Minimal Inhibitory Conc. (MIC)
[29] = tested on: Diaporithe citri; assay: Antibacterial and Antifungal Activities (in Agricultural Field), MIC; assay type: cell-based; conditions: read-out: Minimal Inhibitory Conc. (MIC)
[30] = tested on: Trichophyton mentagrophytes; assay: Therapeutic experiment on trichophytosis in guinea pigs, visual observation; assay type: in vivo, guinea pigs (White Hartly-strain); conditions: 1% preparation, 0.25 ml once per day, 8 consecutive days
[31] = tested on: Aspergillus flavus ATCC 6275; assay: Antifungal Activity (in Industrial Field), MIC; assay type: cell-based; conditions: ATCC6275, read-out: Minimal Inhibitory Conc. (MIC)
[32] = tested on: Glomerella cingulata; assay: Antibacterial and Antifungal Activities (in Agricultural Field), MIC; assay type: cell-based; conditions: Colletotrichum gloeosporioides, read-out: Minimal Inhibitory Conc. (MIC)
[33] = tested on: Pseudomonas syringae pv. tabaci; assay: as above; assay type: cell-based; conditions: read-out: Minimal Inhibitory Conc. (MIC)
[34] = tested on: Xanthomonas campestris pv. citri; assay: as above; assay type: cell-based; conditions: read-out: Minimal Inhibitory Conc. (MIC)
[35] = tested on: Chaetomium globosum ATCC 6205; assay: Antifungal Activity (in Industrial Field), MIC; assay type: cell-based; conditions: ATCC6205, read-out: Minimal Inhibitory Conc. (MIC)
[36] = tested on: Phricularia oryzae; assay: Antibacterial and Antifungal Activities (in Agricultural Field), MIC; assay type: cell-based; conditions: read-out: Minimal Inhibitory Conc. (MIC)
[37] = tested on: Aspergillus terreus PQMD 82 j; assay: Antifungal Activity (in Industrial Field), MIC; assay type: cell-based; conditions: PQMD82J, read-out: Minimal Inhibitory Conc. (MIC)
[38] = tested on: Corynebacterium michiganense; assay: Antibacterial and Antifungal Activities (in Agricultural Field), MIC; assay type: cell-based; conditions: Clavibacter michiganensis, read-out: Minimal Inhibitory Conc. (MIC)
[39] = tested on: Cochliobolus miyabeanus; assay: as above; assay type: cell-based; conditions: Bipolaris oryzae, read-out: Minimal Inhibitory Conc. (MIC)
[40] = tested on: Staphylococcus faecalis ATCC 8043; assay: Antibacterial Activity (in medicinal field), MIC; assay type: cell-based; conditions: ATCC8043, read-out: Minimal Inhibitory Conc. (MIC)
[41] = tested on: Cladosporium herbarum IAM F-517; assay: Antifungal Activity (in Industrial Field), MIC; assay type: cell-based; conditions: IAMF517, read-out: Minimal Inhibitory Conc. (MIC)
[42] = tested on: Xanthomonas campestris pv. oryzae; assay: microbe, parasite or virus in culture; assay type: cell-based; conditions: read-out: Minimal Inhibitory Conc. (MIC)
[43] = tested on: Fusarium oxysporum f. lycopersici; assay: Antibacterial and Antifungal Activities (in Agricultural Field), MIC; assay type: cell-based; conditions: read-out: Minimal Inhibitory Conc. (MIC)

IC(I)=C(I)Cn1cnnn1 [1-(2',3',3'-triiodoallyl)tetrazole]
MIC [1]: 0.39 µg/mL (≈ 0.799 µM)
MIC [2]: 0.78 µg/mL (≈ 1.6 µM)
MIC [3]: 0.78 µg/mL (≈ 1.6 µM)
MIC [4]: 3.12 µg/mL (≈ 6.4 µM)
MIC [5]: 3.12 µg/mL (≈ 6.4 µM)
MIC [6]: 0.39 µg/mL (≈ 0.799 µM)
MIC [7]: 0.78 µg/mL (≈ 1.6 µM)
MIC [8]: 6.25 µg/mL (≈ 12.8 µM)
MIC [9]: 3.13 µg/mL (≈ 6.42 µM)
MIC [10]: 0.78 µg/mL (≈ 1.6 µM)
MIC [11]: 3.13 µg/mL (≈ 6.42 µM)
MIC [12]: 1.56 µg/mL (≈ 3.2 µM)
MIC [13]: 3.13 µg/mL (≈ 6.42 µM)
MIC [14]: 3.13 µg/mL (≈ 6.42 µM)
MIC ([15]; Staphylococcus aureus 209P JC-1): 31.3 µg/mL (≈ 64.2 µM)

O=[N+]([O-])c1cn(CC(I)=C(I)I)c(Cl)c1Cl [1-(2',3',3'-triiodoallyl)-2,3-dichloro-4-nitropyrrole]
MIC [16]: 25 µg/mL (≈ 41.8 µM)
MIC [1]: 1.56 µg/mL (≈ 2.61 µM)
MIC [17]: 31.2 µg/mL (≈ 52.1 µM)
MIC [18]: > 50 µg/mL
MIC [19]: 12.5 µg/mL (≈ 20.9 µM)
MIC [20]: 3.12 µg/mL (≈ 5.21 µM)
MIC [2]: 6.25 µg/mL (≈ 10.4 µM)
MIC [21]: 6.25 µg/mL (≈ 10.4 µM)
MIC [22]: > 50 µg/mL
Reducing Culture Positive Rate ([23]; 3 days culture): 0%
Reducing Culture Positive Rate ([23]; 5 days culture): 16.7%
Reducing Culture Positive Rate ([23]; 7 days culture): 16.7%
MIC [24]: 6.25 µg/mL (≈ 10.4 µM)
MIC [3]: 0.19 µg/mL (≈ 0.317 µM)
MIC [25]: > 50 µg/mL
MIC [26]: 6.25 µg/mL (≈ 10.4 µM)
MIC [4]: 0.19 µg/mL (≈ 0.317 µM)
MIC [5]: 0.39 µg/mL (≈ 0.651 µM)
MIC [6]: 0.19 µg/mL (≈ 0.317 µM)
MIC [27]: 1.56 µg/mL (≈ 2.61 µM)
MIC [28]: > 50 µg/mL
MIC [29]: 0.78 µg/mL (≈ 1.3 µM)
Therapeutic Effect: Desquamation [30]: effective
Therapeutic Effect: Thickening [30]: effective
MIC [31]: 0.78 µg/mL (≈ 1.3 µM)
MIC [32]: 1.56 µg/mL (≈ 2.61 µM)
MIC [33]: > 50 µg/mL
MIC [34]: > 50 µg/mL
MIC [35]: 50 µg/mL (≈ 83.5 µM)
MIC [36]: 6.25 µg/mL (≈ 10.4 µM)
MIC [8]: 6.25 µg/mL (≈ 10.4 µM)
MIC [9]: 6.25 µg/mL (≈ 10.4 µM)
MIC [37]: 1.56 µg/mL (≈ 2.61 µM)
MIC [38]: 6.25 µg/mL (≈ 10.4 µM)
MIC [39]: 50 µg/mL (≈ 83.5 µM)
MIC [40]: 31.2 µg/mL (≈ 52.1 µM)
MIC [41]: 0.2 µg/mL (≈ 0.334 µM)
MIC [13]: 12.5 µg/mL (≈ 20.9 µM)
MIC [42]: > 50 µg/mL
MIC [14]: 6.25 µg/mL (≈ 10.4 µM)
MIC ([15]; Staphylococcus aureus, 209P): 31.2 µg/mL (≈ 52.1 µM)
MIC [43]: 6.25 µg/mL (≈ 10.4 µM)
